Legend:
Assay in all cases: MTT assay: in vitro inhibition of growth by deuterium oxide
Format in all cases: cell-based, human
[1] = test system: 5637 bladder cancer cell line
Procedure: (§1) Studies of in vitro inhibition of growth of human tumor cells by deuterium oxide, by the MTT (3-(4,5-dimethylthiazol-2-yl)-2,5-diphenyltetrazolium bromide) assay
(§2) 1. A bottle of cells that had been cultured for 3 to 4 days and were in the exponential phase was taken, a suitable amount of 0.25% Trypsin-EDTA solution was added thereto to detach the cells from the wall, and the cells were suspended in 10 ml RPMI 1640 medium containing 10% FBS. 2. The cells were counted on a hemocytometer, and generally viable cells should be not less than 97%. 3. The cell suspension was diluted with a complete medium to prepare a suspension containing 1×10^4 cells/ml. 4. To each well of a 12-well culture plate, 300 μl cell suspension was added. The addition of cells should be finished within 4 hours. The plate was placed in an incubator at 37° C. and 5% CO2 for 24 hours. 5. Powdery RPMI Medium 1640 (Gibco, USA, Cat#: 31800-022) was dissolved in deuterium oxide (provided by Cambridge Isotope Laboratories, Inc. (US)) to prepare a cell culture medium (unless particularly specified, all culture media used in the Examples hereinafter were prepared from powdery RPMI Medium 1640 and deuterium oxide) at a concentration shown in Table 1, which was added into the cell culture plate. 6. The cell culture plate was incubated for 3 days in an incubator at 37° C., 5% CO2 and 100% humidity. 7. A solution of 1 mg/ml MTT was prepared in a serum-free RPMI1640 medium, added to the plate at 200 μl/well, and incubated at 37° C. for 4 hours, to allow MTT to be reduced to formazan. 8. The supernatant was removed by pipetting, 200 μl DMSO was added to dissolve formazan, and the solution was well mixed on a platform shaker. 9. Absorbance of each well was measured on an ELISA reader with a detection wavelength of 570 nm and a reference wavelength of 450 nm. 10. The assay was repeated one more time.
(§3) Calculation of results: Inhibition of growth of tumor cells by deuterium oxide was calculated using tumor cells treated with sodium chloride physiological solution as a control group. Inhibition of cell growth was plotted against amounts of deuterium oxide to obtain a dose response curve, from which the half maximal inhibitory concentration (IC50) of deuterium oxide was derived.
(§4) Inhibition of tumor cell growth (%)=(1−OD test/OD control)×100%

[2] = test system: BGC-823 gastric cancer cell line
Procedure: as §1, §2, §3, §4

[3] = test system: CFPAC-1 pancreatic cancer cell line
Procedure: as §1, §2, §3, §4

K562 leukemia cell line = test system: K562 leukemia cell line
Procedure: as §1, §2, §3, §4

[4] = test system: MCF-7 breast cancer cell line
Procedure: as §1, §2, §3, §4

[5] = test system: NCI-1975 lung cancer cell line
Procedure: as §1, §2, §3, §4

[6] = test system: NCI-H460 lung cancer cell line
Procedure: as §1, §2, §3, §4

[7] = test system: U2-OS osteosarcoma cell line
Procedure: as §1, §2, §3, §4

[2H]O[2H] [Deuterium oxide]
Inhibition of growth (%) ([1]; deuterium oxide 1.2% (v/v)): 0.84%
Inhibition of growth (%) ([1]; deuterium oxide 2.5% (v/v)): −3.09%
Inhibition of growth (%) ([1]; deuterium oxide 5% (v/v)): 10.44%
Inhibition of growth (%) ([1]; deuterium oxide 10% (v/v)): 16.15%
Inhibition of growth (%) ([1]; deuterium oxide 20% (v/v)): 25.56%
Inhibition of growth (%) ([1]; deuterium oxide 30% (v/v)): 36.69%
Inhibition of growth (%) ([1]; deuterium oxide 40% (v/v)): 44.32%
Inhibition of growth (%) ([1]; deuterium oxide 50% (v/v)): 52.11%
Inhibition of growth (%) ([1]; deuterium oxide 60% (v/v)): 59.76%
Inhibition of growth (%) ([1]; deuterium oxide 70% (v/v)): 74.86%
Inhibition of growth (%) ([1]; deuterium oxide 80% (v/v)): 88.43%
IC10 ([1]; expressed in v/v %): 4.46%
IC50 ([1]; expressed in v/v %): 59.08%
Inhibition of growth (%) ([2]; deuterium oxide 1.2% (v/v)): 2.74%
Inhibition of growth (%) ([2]; deuterium oxide 2.5% (v/v)): 2.15%
Inhibition of growth (%) ([2]; deuterium oxide 5% (v/v)): −4.23%
Inhibition of growth (%) ([2]; deuterium oxide 10% (v/v)): −3.60%
Inhibition of growth (%) ([2]; deuterium oxide 20% (v/v)): 9.09%
Inhibition of growth (%) ([2]; deuterium oxide 30% (v/v)): 12.32%
Inhibition of growth (%) ([2]; deuterium oxide 40% (v/v)): 7.50%
Inhibition of growth (%) ([2]; deuterium oxide 50% (v/v)): 15.99%
Inhibition of growth (%) ([2]; deuterium oxide 60% (v/v)): 37.83%
Inhibition of growth (%) ([2]; deuterium oxide 70% (v/v)): 61.90%
Inhibition of growth (%) ([2]; deuterium oxide 80% (v/v)): 74.57%
IC10 ([2]; expressed in v/v %): 26.92%
IC50 ([2]; expressed in v/v %): 96.68%
Inhibition of growth (%) ([3]; deuterium oxide 1.2% (v/v)): 6.82%
Inhibition of growth (%) ([3]; deuterium oxide 2.5% (v/v)): 14.05%
Inhibition of growth (%) ([3]; deuterium oxide 5% (v/v)): 13.42%
Inhibition of growth (%) ([3]; deuterium oxide 10% (v/v)): 10.75%
Inhibition of growth (%) ([3]; deuterium oxide 20% (v/v)): 14.84%
Inhibition of growth (%) ([3]; deuterium oxide 30% (v/v)): 26.16%
Inhibition of growth (%) ([3]; deuterium oxide 40% (v/v)): 33.67%
Inhibition of growth (%) ([3]; deuterium oxide 50% (v/v)): 45.30%
Inhibition of growth (%) ([3]; deuterium oxide 60% (v/v)): 61.42%
Inhibition of growth (%) ([3]; deuterium oxide 70% (v/v)): 77.94%
Inhibition of growth (%) ([3]; deuterium oxide 80% (v/v)): 91.85%
IC10 ([3]; expressed in v/v %): 3.20%
IC50 ([3]; expressed in v/v %): 59.43%
Inhibition of growth (%) (K562 leukemia cell line; deuterium oxide 1.2% (v/v)): −2.47%
Inhibition of growth (%) (K562 leukemia cell line; deuterium oxide 2.5% (v/v)): 6.51%
Inhibition of growth (%) (K562 leukemia cell line; deuterium oxide 5% (v/v)): 4.23%
Inhibition of growth (%) (K562 leukemia cell line; deuterium oxide 10% (v/v)): −7.60%
Inhibition of growth (%) (K562 leukemia cell line; deuterium oxide 20% (v/v)): 9.10%
Inhibition of growth (%) (K562 leukemia cell line; deuterium oxide 30% (v/v)): 22.72%
Inhibition of growth (%) (K562 leukemia cell line; deuterium oxide 40% (v/v)): 39.51%
Inhibition of growth (%) (K562 leukemia cell line; deuterium oxide 50% (v/v)): 55.51%
Inhibition of growth (%) (K562 leukemia cell line; deuterium oxide 60% (v/v)): 70.13%
Inhibition of growth (%) (K562 leukemia cell line; deuterium oxide 70% (v/v)): 88.59%
Inhibition of growth (%) (K562 leukemia cell line; deuterium oxide 80% (v/v)): 93.24%
IC10 (K562 leukemia cell line; expressed in v/v %): 14.83%
IC50 (K562 leukemia cell line; expressed in v/v %): 51.72%
Inhibition of growth (%) ([4]; deuterium oxide 1.2% (v/v)): 9.78%
Inhibition of growth (%) ([4]; deuterium oxide 2.5% (v/v)): 11.04%
Inhibition of growth (%) ([4]; deuterium oxide 5% (v/v)): 15.71%
Inhibition of growth (%) ([4]; deuterium oxide 10% (v/v)): 22.47%
Inhibition of growth (%) ([4]; deuterium oxide 20% (v/v)): 31.60%
Inhibition of growth (%) ([4]; deuterium oxide 30% (v/v)): 40.38%
Inhibition of growth (%) ([4]; deuterium oxide 40% (v/v)): 52.45%
Inhibition of growth (%) ([4]; deuterium oxide 50% (v/v)): 63.22%
Inhibition of growth (%) ([4]; deuterium oxide 60% (v/v)): 86.41%
Inhibition of growth (%) ([4]; deuterium oxide 70% (v/v)): 89.06%
Inhibition of growth (%) ([4]; deuterium oxide 80% (v/v)): 98.08%
IC10 ([4]; expressed in v/v %): 3.28%
IC50 ([4]; expressed in v/v %): 61.29%
Inhibition of growth (%) ([5]; deuterium oxide 1.2% (v/v)): 0.84%
Inhibition of growth (%) ([5]; deuterium oxide 2.5% (v/v)): −8.29%
Inhibition of growth (%) ([5]; deuterium oxide 5% (v/v)): −7.44%
Inhibition of growth (%) ([5]; deuterium oxide 10% (v/v)): −4.95%
Inhibition of growth (%) ([5]; deuterium oxide 20% (v/v)): 5.60%
Inhibition of growth (%) ([5]; deuterium oxide 30% (v/v)): 6.66%
Inhibition of growth (%) ([5]; deuterium oxide 40% (v/v)): 24.03%
Inhibition of growth (%) ([5]; deuterium oxide 50% (v/v)): 39.10%
Inhibition of growth (%) ([5]; deuterium oxide 60% (v/v)): 51.93%
Inhibition of growth (%) ([5]; deuterium oxide 70% (v/v)): 79.65%
Inhibition of growth (%) ([5]; deuterium oxide 80% (v/v)): 87.23%
IC10 ([5]; expressed in v/v %): 27.00%
IC50 ([5]; expressed in v/v %): 62.61%
Inhibition of growth (%) ([6]; deuterium oxide 1.2% (v/v)): 1.15%
Inhibition of growth (%) ([6]; deuterium oxide 2.5% (v/v)): 9.40%
Inhibition of growth (%) ([6]; deuterium oxide 5% (v/v)): 11.27%
Inhibition of growth (%) ([6]; deuterium oxide 10% (v/v)): 9.47%
Inhibition of growth (%) ([6]; deuterium oxide 20% (v/v)): 11.60%
Inhibition of growth (%) ([6]; deuterium oxide 30% (v/v)): 30.58%
Inhibition of growth (%) ([6]; deuterium oxide 40% (v/v)): 42.05%
Inhibition of growth (%) ([6]; deuterium oxide 50% (v/v)): 53.09%
Inhibition of growth (%) ([6]; deuterium oxide 60% (v/v)): 69.50%
Inhibition of growth (%) ([6]; deuterium oxide 70% (v/v)): 82.33%
Inhibition of growth (%) ([6]; deuterium oxide 80% (v/v)): 98.06%
IC10 ([6]; expressed in v/v %): 5.60%
IC50 ([6]; expressed in v/v %): 48.75%
Inhibition of growth (%) ([7]; deuterium oxide 1.2% (v/v)): −2.81%
Inhibition of growth (%) ([7]; deuterium oxide 2.5% (v/v)): 4.20%
Inhibition of growth (%) ([7]; deuterium oxide 5% (v/v)): −1.64%
Inhibition of growth (%) ([7]; deuterium oxide 10% (v/v)): −8.55%
Inhibition of growth (%) ([7]; deuterium oxide 20% (v/v)): −3.12%
Inhibition of growth (%) ([7]; deuterium oxide 30% (v/v)): 11.99%
Inhibition of growth (%) ([7]; deuterium oxide 40% (v/v)): 10.23%
Inhibition of growth (%) ([7]; deuterium oxide 50% (v/v)): 18.21%
Inhibition of growth (%) ([7]; deuterium oxide 60% (v/v)): 23.43%
Inhibition of growth (%) ([7]; deuterium oxide 70% (v/v)): 29.64%
Inhibition of growth (%) ([7]; deuterium oxide 80% (v/v)): 45.84%
IC10 ([7]; expressed in v/v %): 24.99%
IC50 ([7]; expressed in v/v %): 86.25%

Source: patent US20170071976A1, “PHARMACEUTICAL SOLUTION HAVING ANTI-TUMOR EFFECT-ENHANCING AND TOXICITY-REDUCING EFFECT, AND PHARMACEUTICAL COMPOSITION COMPRISING SAME” (priority 2014, published 2017)
